Entries after “also recorded” stand apart in the source; their conditions may differ. Where two headings read alike, the source gives them in different places.
Legend:
Src kinase domain [1] = target: T1, Src kinase domain (Gallus gallus, UniProt P00523); assay: Fluorescence anisotropy binding assay, substrate peptide to Src kinase domain (wild type); parameters: species or system chicken; conditions: for cooperativity of peptide and AMP-PNP binding: Kd at various concentrations of AMP-PNP, 1 μM labelled peptide; for binding cooperativity of substrates and products (summary): ATP + substrate peptide, ADP + pRS1, Src kinase; for change of Kd of substrate peptide by AMP-PNP: increasing AMP-PNP concentration
T1 construct: chicken c-Src (residues 251–533); made in house
Experimental: After a 1-min equilibration, the increase in the fluorescence anisotropy of the fluorescently labelled ligand was recorded using a Fluoromax 4 (Horiba) and fitted against a quadratic binding equation in Kaleidagraph (Synergy Software) to yield the Kd. Error bars represent the s.e. of the mean of the independent runs.

Src kinase domain [2] = target: T1, Src kinase domain; assay: Isothermal titration calorimetry, nucleotide binding to Src kinase domain; parameters: species or system chicken; conditions: for Kd: isothermal titration calorimetry, 25 °C, 20 mM Tris (pH 8.0), 250 mM NaCl, 10 mM MgCl2; for fold reduction of nucleotide Kd by phosphorylated peptide (pRs1): presence of pRs1
Experimental: (§1) Thermodynamic binding parameters for the binding of nucleotides to the Src kinase domain were obtained through isothermal titration calorimetry as published. All experiments were run in a VP-ITC instrument (Microcal) at 25 °C. Proteins were exchanged into 20 mM Tris (pH 8.0), 250 mM NaCl, 10 mM MgCl2 on PD-10 buffer exchange columns (GE Life-science) and diluted to 50–100 μM. Nucleotide stocks (Sigma) were made in buffer to final concentrations between 1 and 3 mM. The heat of binding was measured over the injection of 295 μl of drug in 10-μl steps spaced 300 s apart. Data were fit to a one binding site model using the Origin software package (Microcal). Error bars represent the s.e. of the mean of three independent runs. Representative enthalpograms are shown in Supplementary Fig. 7.
Supplementary Figure 7. Isothermal Titration Calorimetry of Src Binding to AMP-PNP and
ADP (A) Sample titration curve for AMP-PNP binding to the Src kinase domain.(B) Sample
titration curve of ADP binding to the Src kinase domain. All experiments were run in a VP-ITC
instrument (Micro-cal) at 25 °C. Proteins were exchanged into 20 mM Tris (pH 8.0), 250 mM
NaCl, 10 mM MgCl2 on PD-10 buffer exchange columns (GE Life-science), and diluted to 50–
(§2) (1 picture or pasted object on this page, not shown here)

kinase = conditions: high Mg2+ concentration; cited from earlier work
Description: Mg^2+ ions accompany ATP and ADP binding in protein kinases, mediating interactions between phosphate groups and conserved Asp and Asn residues (Asp404 and Asn391 in Src). On the other hand, in some kinase-ADP co-crystal structures, Mg^2+ ions are missing. In such cases, the Asp residue of the DFG motif (Asp404 in Src) is almost certainly protonated to prevent negative charge repulsion from the ADP phosphate group only 3.2 Å away (for example, PDB entry 1JBP (ref. [16])).

Src kinase domain [3] = target: T1, Src kinase domain; assay: Kinase activity assay (continuous spectrophotometric), Src kinase domain; assay type: biochemical, chicken; conditions: for Km: 25 nM Src kinase domain, mean ± s.e.m., triplicate
Experimental: (§3) Mutations were introduced into the chicken c-Src kinase domain by site-directed mutagenesis and verified by DNA sequencing.
(§4) For the continuous spectrophotometric assay[64], 12.5–800 μM ATP Src-optimal substrate peptide ([sequence])[34] was combined with 12.5–800 μM ATP. Concentrations of Src kinase domain used for these assays were 25 nM. The initial velocities were plotted and fit to the Michaelis–Menten equation in Kaleidagraph (Synergy Software) to determine Km.

Hck kinase domain = target: T2, Hck kinase domain (Homo sapiens, UniProt P08631); assay: Kinase activity assay, Hck kinase domain; assay type: biochemical; conditions: increasing substrate-peptide (RS1) concentration; Fig. 3b
T2 construct: human Hck (residues 166–445); made in house
T2 sequence (P08631 247-526): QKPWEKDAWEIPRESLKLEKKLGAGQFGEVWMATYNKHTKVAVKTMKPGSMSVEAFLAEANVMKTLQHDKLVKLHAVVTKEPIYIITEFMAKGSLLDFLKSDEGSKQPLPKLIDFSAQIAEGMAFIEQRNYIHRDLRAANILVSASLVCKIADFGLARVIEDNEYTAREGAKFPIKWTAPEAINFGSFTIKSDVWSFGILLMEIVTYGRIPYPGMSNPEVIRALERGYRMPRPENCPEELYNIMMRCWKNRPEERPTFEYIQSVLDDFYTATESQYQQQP
Experimental: as §3, §4

Abl kinase domain = target: T3, Abl kinase domain (Homo sapiens, UniProt P00519); assay: Kinase activity assay, Abl kinase domain; assay type: biochemical; conditions: increasing substrate-peptide (RS1) concentration; Fig. 3b
T3 construct: human c-Abl (residues 229–512); made in house
T3 sequence (P00519 229-512): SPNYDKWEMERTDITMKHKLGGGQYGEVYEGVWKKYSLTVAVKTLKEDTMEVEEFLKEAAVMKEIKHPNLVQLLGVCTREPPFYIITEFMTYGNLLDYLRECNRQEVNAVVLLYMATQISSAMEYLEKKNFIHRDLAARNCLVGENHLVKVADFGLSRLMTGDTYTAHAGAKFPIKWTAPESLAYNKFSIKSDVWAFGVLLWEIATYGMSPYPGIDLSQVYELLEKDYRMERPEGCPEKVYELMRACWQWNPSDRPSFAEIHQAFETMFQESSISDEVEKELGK
Experimental: as §3, §4

Src W260A = assay: Kinase activity assay, Src W260A; assay type: biochemical, chicken; conditions: W260A versus wild type
Experimental: as §3, §4

Src 3-domain construct = assay: Cooperativity in Src three-domain construct (KM and KD); assay type: binding; conditions: Supplementary Fig. 6
Description: Domain Kinase. (A) The effect of ATP concentration on substrate KM for Src kinase domain and 3-domain construct. (B) The effect of ATP concentration on substrate KM for WT and T338I mutant Src 3-domain construct (C) The effect of peptide concentration on ATP KM for Src kinase domain and 3-domain construct. (D) The effect of substrate concentration on ATP KM for WT and T338I mutant Src 3-domain construct. (E) Dissociation constants Src kinase domain and 3-domain constructs at increasing AMP-PNP concentration. (F) Dissociation constants for WT and T338I mutant Src 3-domain construct. KM values were determined in a kinase activity assay. KD values for the substrate peptides were determined using fluorescence anisotropy at 1 µM labeled peptide. All experiments were performed in triplicate, and data represent mean values ± s.e.m.
as §2

Src D404N = assay: Nucleotide binding to Src D404N; parameters: species or system chicken; conditions: asparagine incapable of chelating Mg2+; Supplementary Fig. 10
Experimental: as §1
Supplementary Figure 10. Mutations to the allosteric network produce biochemical phenotypes. (A) Location of residues involved in the allosteric network (colored beads). (B) Representative conformations of Src wt and D404N. As shown, Asn404 mimics protonated Asp404 by forming hydrogen bonds with Asp386, and affects the conformation of Arg388, Trp428, and other residues involved in the substrate binding. (C) The effects of D404N mutation to three key residue-residue interaction of the putative allosteric network. (D) Dissociation […]
substrate binding. […]

[4] = target: T338I mutant Src 3-domain construct (Gallus gallus, UniProt P00523, T338I); assay: Km of ATP and substrate peptide, T338I mutant Src 3-domain construct; assay type: biochemical; conditions: higher Km for ATP, lower Km for substrate peptide
Src T338I = conditions: T338I versus wild type
Ser/Thr kinase PKA = conditions: cited from earlier work
Description: The putative allosteric network discussed above may manifest itself in the form of cooperativity between ATP and substrate binding. […] Higher concentrations of AMP-PNP, a non-hydrolysable ATP ana ...

[5] = 100 mM Tris, pH 8.0, 10 mM MgCl2, 25 °C

For “GIYWHHY [Rs3, short substrate peptide (GIYWHHY)]”, the “cooperativity of peptide and AMP-PNP binding” value (Src kinase domain [1]; [5]) was “negative cooperativity independent of their overall affinity”.

With Nc1ncnc2c1ncn2[C@@H]1O[C@H](COP(=O)(O)OP(=O)(O)O)[C@@H](O)[C@H]1O [ADP] the “binding cooperativity of substrates and products (summary)” value (Src kinase domain [1]) was “positive cooperativity”, the Kd (Src kinase domain [2]) was 45 to 100 µM and the “fold reduction of nucleotide Kd by phosphorylated peptide (pRs1)” value (Src kinase domain [2]) was “twofold”. For the same compound, the “ADP release in kinase catalytic cycle” value (kinase) was “slower at high Mg^2+ concentration”.

In the case of Nc1ncnc2c1ncn2[C@@H]1O[C@H](COP(=O)(O)OP(=O)(O)OP(=O)(O)O)[C@@H](O)[C@H]1O [ATP], the “binding cooperativity of substrates and products (summary)” value (Src kinase domain [1]) is reported as “negative cooperativity”, the “Mg2+ dependence of binding and cooperativity” value (Src kinase domain [1]; presence vs absence of Mg2+, ionic strength adjusted to 40 mM with NaCl, Supplementary Fig. 9) is reported as “disrupts ATP binding; also recorded: requires the presence of Mg^2+” and the Km (Src kinase domain [3]; 50 μM substrate peptide, read-out: Km for ATP at 50 μM substrate peptide) is reported as 54 ± 22 µM. The Km (Src kinase domain [3]; 800 μM substrate peptide, read-out: Km for ATP at 800 μM substrate peptide) was 202 ± 21 µM, the “ATP Km versus substrate-peptide concentration, Src” value (Src kinase domain [3]; increasing substrate-peptide (RS1) concentration, Fig. 3b) was “increases with increasing substrate-peptide concentration” and the “ATP Km versus substrate-peptide concentration, Hck” value (Hck kinase domain) was “increases with increasing substrate-peptide concentration”. The “ATP Km versus substrate-peptide concentration, Abl” value (Abl kinase domain) was “increases with increasing substrate-peptide concentration”, the “Km of W260A for ATP relative to wild type” value (Src W260A) was “two- to fivefold lower” and the “cooperativity of ATP and substrate binding, three-domain construct” value (Src 3-domain construct) was “negative cooperativity is present”. The “ATP binding to Src D404N” value (Src D404N) was “does not bind ATP favourably”, the “Km of T338I three-domain Src relative to wild type” value [4] was “This relationship holds for three-domain Src” and the “Km of T338I for ATP relative to wild type” value (Src T338I) was “twofold higher”. For the same compound, the “cooperativity between ATP and substrate binding, PKA” value (Ser/Thr kinase PKA) was “positive cooperativity”.

For AEEMIYGEFAKKK [Rs2], the “cooperativity of peptide and AMP-PNP binding” value (Src kinase domain [1]; [5]) was “negative cooperativity independent of their overall affinity”.

For Nc1ncnc2c1ncn2[C@@H]1O[C@H](COP(=O)(O)OP(=O)(O)NP(=O)(O)O)[C@@H](O)[C@H]1O [AMP-PNP], the Kd (Src kinase domain [2]) was 45 to 100 µM and the “fold reduction of nucleotide Kd by phosphorylated peptide (pRs1)” value (Src kinase domain [2]) was “three”.

Compound CC[C@H](C)[C@H](NC(=O)[C@H](CCC(=O)O)NC(=O)[C@H](CCC(=O)O)NC(=O)[C@H](CCC(=O)O)NC(=O)[C@H](C)N)C(=O)N[C@@H](Cc1ccc(O)cc1)C(=O)NCC(=O)N[C@@H](CCC(=O)O)C(=O)N[C@@H](Cc1ccccc1)C(=O)N[C@@H](C)C(=O)N[C@@H](CCCCN)C(=O)N[C@@H](CCCCN)C(=O)N[C@@H](CCCCN)C(=O)O [Rs1] has a Kd (Src kinase domain [1]) of 37 ± 7 µM, a Kd (Src kinase domain [1]; 100 μM ADP, 1 μM fluorescein-labelled peptide, 100 mM Tris, pH 8.0, 10 mM MgCl2, 25 °C, mean ± s.e.m., triplicate, read-out: Kd of substrate peptide at 100 μM ADP) of 17 ± 4 µM and a Kd (Src kinase domain [1]; 1,000 μM ADP, 1 μM fluorescein-labelled peptide, 100 mM Tris, pH 8.0, 10 mM MgCl2, 25 °C, mean ± s.e.m., triplicate, read-out: Kd of substrate peptide at 1,000 μM ADP) of 16 ± 2 µM. For the same compound, the “change of Kd of substrate peptide by AMP-PNP” value (Src kinase domain [1]; 1 μM fluorescein-labelled peptide, 100 mM Tris, pH 8.0, 10 mM MgCl2, 25 °C, listed as optimal substrate peptide for Src) was “increase the Kd up to fivefold” and the “change of Kd of substrate peptide by AMP-PNP” value (Src kinase domain [1]; 1 μM fluorescein-labelled peptide, 100 mM Tris, pH 8.0, 10 mM MgCl2, 25 °C, listed as substrate peptide) was “increases the Kd of substrate peptide fivefold”.

From article PMC4300553, “A dynamically coupled allosteric network underlies binding cooperativity in Src kinase” (Nature Communications, 2015)
